Data published in patent US6787522B2, “Antibacterial agents” (British Biotech Pharmaceuticals, priority 1998, dated 2004).
≈ marks a conversion by molar mass, not a printed value. Where two headings read alike, the source gives them in different places.

Experiments:
Format in all cases: cell-based
[1] = system: Staphylococcus aureus ATCC 25923 MSSA; assay: MIC, Microdilution Broth Method (NCCLS)
[2] = system: Micrococcus luteus ATCC 9341; assay: MIC, Microdilution Broth Method (NCCLS); conditions: ATCC9341
[3] = system: Staphylococcus aureus ATCC 29213 MSSA; assay: MIC, Microdilution Broth Method (NCCLS)
[4] = system: Staphylococcus aureus ATCC 6538 MSSA; assay: MIC, Microdilution Broth Method (NCCLS)
[5] = system: Staphylococcus epidermidis ATCC 27626; assay: MIC, Microdilution Broth Method (NCCLS); conditions: ATCC27626
[6] = system: Staphylococcus epidermidis ATCC 1228; assay: MIC, Microdilution Broth Method (NCCLS); conditions: ATCC1228
[7] = system: Enterobacter cloacae ATCC 13047; assay: MIC, Microdilution Broth Method (NCCLS); conditions: ATCC13047
[8] = system: Enterococcus faecalis ATCC 29212; assay: MIC, Microdilution Broth Method (NCCLS)
[9] = system: Enterococcus faecalis (Vancomycin resistant strain); assay: MIC, Microdilution Broth Method (NCCLS)
[10] = system: clinical isolates of aminoglycoside and erythromycin resistant Streptococcus pneumoniae; assay: MIC, tryptic soy broth with 7% calf serum
[11] = system: methicillin-resistant (MR) Staphylococcus aureus (American Type Culture Collection number 33591); assay: MIC, Nutrient Broth; conditions: S. aureus (MR), 37° C., 20 hours
[12] = system: Helicobacter pylori (American Type Culture Collection number 43504); assay: MIC, Columbia agar base with 7% sheep blood; conditions: H. pylori, 35° C., 72 hours
[13] = system: Escherichia coli ATCC 12014; assay: MIC, Microdilution Broth Method (NCCLS); conditions: ATCC12014
[14] = system: Pseudomonas aeruginosa (American Type Culture Collection number 9027); assay: MIC, Nutrient Broth; conditions: P. aeruginosa, 37° C., 20 hours
[15] = system: Mycobacterium ranae (American Type Culture Collection number 110); assay: MIC, Brain Heart Infusion broth; conditions: M. ranae, 37° C., 48 hours
[16] = system: Klebsiella pneumoniae (American Type Culture Collection number 10031); assay: MIC, Nutrient Broth; conditions: K. pneumoniae, 37° C., 20 hours
[17] = system: Pseudomonas aeruginosa ATCC 27853; assay: MIC, Microdilution Broth Method (NCCLS); conditions: ATCC27853
[18] = system: Klebsiella pneumoniae ATCC 13883; assay: MIC, Microdilution Broth Method (NCCLS); conditions: ATCC13883
[19] = system: Escherichia coli ATCC 25922; assay: MIC, Microdilution Broth Method (NCCLS); conditions: ATCC25922
E. coli strain DH5α = assay: MIC, two fold serial dilution in 2xYT broth; conditions: Escherichia coli, 37° C., 18 hours
[20] = system: Klebsiella pneumoniae (American Type Culture Collection number 13883); assay: MIC, two fold serial dilution in 2xYT broth; conditions: 37° C., 18 hours
[21] = system: Enterobacter cloacae (American Type Culture Collection number 13047); assay: MIC, two fold serial dilution in 2xYT broth; conditions: 37° C., 18 hours
[22] = system: Staphylococcus capitis (American Type Culture Collection number 35661); assay: MIC, two fold serial dilution in 2xYT broth; conditions: 37° C., 18 hours
[23] = system: Morganella morganii ATCC 36030; assay: MIC, Microdilution Broth Method (NCCLS); conditions: ATCC36030
[24] = Staphylococcus aureus ATCC 25923 MSSA, read-out: MIC
[25] = Micrococcus luteus ATCC 9341, read-out: MIC
[26] = Staphylococcus aureus ATCC 29213 MSSA, read-out: MIC
[27] = Staphylococcus aureus ATCC 6538 MSSA, read-out: MIC
[28] = Staphylococcus epidermidis ATCC 27626, read-out: MIC
[29] = Staphylococcus epidermidis ATCC 1228, read-out: MIC
[30] = ATCC29212, Enterococcus faecalis ATCC 29212, Gram-positive table, read-out: MIC
[31] = Enterococcus faecalis (Vancomycin resistant strain), Gram-positive table, read-out: MIC
[32] = Streptococcus pneumoniae, S. pneumoniae, tryptic soy broth, 7% calf serum, 37° C., 48 hours, read-out: MIC
[33] = Helicobacter pylori, read-out: MIC
[34] = Pseudomonas aeruginosa, read-out: MIC
[35] = ATCC29212, Enterococcus faecalis ATCC 29212, table of multi-resistant clinical isolate, read-out: MIC
[36] = Enterococcus faecalis Vancomycin resistant strain (multi-resistant clinical isolate), read-out: MIC
[37] = Enterococcus faecalis, ATCC29212
[38] = Enterococcus faecalis ATCC 29212, table of multi-resistant clinical isolate
[39] = Enterococcus faecalis Vancomycin resistant strain (multi-resistant clinical isolate)

## CCCCC(CN(O)C=O)C(=O)N[C@H](C(=O)NC)C(C)(C)C (single isomer, unassigned) [Compound 1, 2R (or S)-[(Formyl-hydroxy-amino)-methyl]-hexanoic acid-(2,2-dimethyl-1S-methyl-carbamoyl-propyl)-amide]
[1]; [24]
  MIC: 16 µg/mL (≈ 50.7 µM)
[2]; [25]
  MIC: 0.5 µg/mL (≈ 1.59 µM)
[3]; [26]
  MIC: 32 µg/mL (≈ 101 µM)
[4]; [27]
  MIC: 8 µg/mL (≈ 25.4 µM)
[5]; [28]
  MIC: 8 µg/mL (≈ 25.4 µM)
[6]; [29]
  MIC: 8 µg/mL (≈ 25.4 µM)
[7]
  MIC: 32 µg/mL (≈ 101 µM)
[8]; [30]
  MIC: 32 µg/mL (≈ 101 µM)
[9]; [31]
  MIC: 128 µg/mL (≈ 406 µM)
[10]; [32]
  MIC: 50 µg/mL (≈ 159 µM)
[11]; Staphylococcus aureus, read-out: MIC
  MIC: 3.13 µg/mL (≈ 9.92 µM)
[12]; [33]
  MIC: 0.1 µg/mL (≈ 0.317 µM)
[13]
  MIC: 4 µg/mL (≈ 12.7 µM)
[14]; [34]
  MIC: 12.5 µg/mL (≈ 39.6 µM)
[15]
  MIC: 0.78 µg/mL (≈ 2.47 µM)
[16]; Klebsiella pneumoniae, read-out: MIC
  MIC: 0.2 µg/mL (≈ 0.634 µM)
[17]
  MIC: > 128 µg/mL
[18]
  MIC: 16 µg/mL (≈ 50.7 µM)
[19]
  MIC: 4 µg/mL (≈ 12.7 µM)
E. coli strain DH5α
  MIC: 12.5 µM (≈ 3.94 µg/mL)
[20]
  MIC: 25 µM (≈ 7.89 µg/mL)
[21]
  MIC: 50 µM (≈ 15.8 µg/mL)
[22]
  MIC: 100 µM (≈ 31.5 µg/mL)
[23]
  MIC: 128 µg/mL (≈ 406 µM)

## CC1(C)S[C@@H]2[C@H](NC(=O)[C@H](N)c3ccccc3)C(=O)N2[C@H]1C(=O)O [Ampicillin, ampicillin]
[8]; [35]
  MIC: 0.5 µg/mL (≈ 1.43 µM)
[9]; [36]
  MIC: > 128 µg/mL
[10]; Streptococcus pneumoniae, 48 h
  MIC: 3.13 µg/mL (≈ 8.96 µM)
[12]; [33]
  MIC: 0.1 µg/mL (≈ 0.286 µM)
[14]; [34]
  MIC: 100 µg/mL (≈ 286 µM)

## CC(C)(O/N=C(\C(=O)N[C@@H]1C(=O)N2C(C(=O)[O-])=C(C[n+]3ccccc3)CS[C@H]12)c1csc(N)n1)C(=O)O [Ceftazidime]
[8]; [37]
  MIC: 128 µg/mL (≈ 234 µM)
[9]; Enterococcus faecalis
  MIC: > 128 µg/mL

## CCCCC(CN(O)C=O)C(=O)N[C@H](C(=O)N(C)C)C(C)(C)C (stereo partly drawn) [Compound 3, 2R (or S)-[(Formyl-hydroxy-amino)-methyl]-hexanoic acid-(1S-dimethylcarbamoyl-2,2-dimethyl-propyl)-amide]
[1]; [24]
  MIC: 16 µg/mL (≈ 48.6 µM)
[2]; [25]
  MIC: 0.5 µg/mL (≈ 1.52 µM)
[3]; [26]
  MIC: 8 µg/mL (≈ 24.3 µM)
[4]; [27]
  MIC: 4 µg/mL (≈ 12.1 µM)
[5]; [28]
  MIC: 2 µg/mL (≈ 6.07 µM)
[6]; [29]
  MIC: 4 µg/mL (≈ 12.1 µM)
[7]
  MIC: 32 µg/mL (≈ 97.1 µM)
[8]; [30]
  MIC: 32 µg/mL (≈ 97.1 µM)
[8]; [38]
  MIC: 32 µg/mL (≈ 97.1 µM)
[9]; [31]
  MIC: 8 µg/mL (≈ 24.3 µM)
[9]; [39]
  MIC: 8 µg/mL (≈ 24.3 µM)
[13]
  MIC: 4 µg/mL (≈ 12.1 µM)
[17]
  MIC: 128 µg/mL (≈ 389 µM)
[18]
  MIC: 16 µg/mL (≈ 48.6 µM)
[19]
  MIC: 4 µg/mL (≈ 12.1 µM)
[23]
  MIC: > 128 µg/mL

## CN(C)C(=O)[C@@H](NC(=O)C(CC1CCCC1)CN(O)C=O)C(C)(C)C (stereo partly drawn) [Cpd 4, 2R (or S)-[(Formyl-hydroxy-amino)-methyl]-3-cyclopentyl-propionic acid (1S-dimethyl-carbamoyl-2,2-dimethyl-propyl)-amide]
[8]; [35]
  MIC: 8 µg/mL (≈ 22.5 µM)
[9]; [36]
  MIC: 4 µg/mL (≈ 11.3 µM)

## CC[C@H]1OC(=O)[C@H](C)[C@@H](O[C@H]2C[C@@](C)(OC)[C@@H](O)[C@H](C)O2)[C@H](C)[C@@H](O[C@@H]2O[C@H](C)C[C@H](N(C)C)[C@H]2O)[C@](C)(O)C[C@@H](C)C(=O)[C@H](C)[C@@H](O)[C@]1(C)O [Erythromycin, erythromycin]
[8]; [35]
  MIC: 2 µg/mL (≈ 2.73 µM)
[9]; [36]
  MIC: > 128 µg/mL
[10]; [32]
  MIC: 100 µg/mL (≈ 136 µM)

## C[C@@H](O)[C@H]1C(=O)N2C(C(=O)O)=C(SCCN=CN)C[C@H]12 [Imipenem]
[8]; [35]
  MIC: 1 µg/mL (≈ 3.34 µM)
[9]; [36]
  MIC: > 128 µg/mL

## CN[C@H](CC(C)C)C(=O)N[C@H]1C(=O)N[C@@H](CC(N)=O)C(=O)N[C@H]2C(=O)N[C@H]3C(=O)N[C@H](C(=O)N[C@H](C(=O)O)c4cc(O)cc(O)c4-c4cc3ccc4O)[C@H](O)c3ccc(c(Cl)c3)Oc3cc2cc(c3O[C@@H]2O[C@H](CO)[C@@H](O)[C@H](O)[C@H]2O[C@H]2C[C@](C)(N)[C@H](O)[C@H](C)O2)Oc2ccc(cc2Cl)[C@H]1O [Vancomycin, reference compound]
[1]; Staphylococcus aureus
  MIC: 0.5 µg/mL (≈ 0.345 µM)
[2]; Micrococcus luteus
  MIC: 0.25 µg/mL (≈ 0.173 µM)
[3]; Staphylococcus aureus
  MIC: 0.25 µg/mL (≈ 0.173 µM)
[4]; Staphylococcus aureus
  MIC: 0.5 µg/mL (≈ 0.345 µM)
[5]; Staphylococcus epidermidis
  MIC: 0.5 µg/mL (≈ 0.345 µM)
[6]; Staphylococcus epidermidis
  MIC: 0.5 µg/mL (≈ 0.345 µM)
[8]; [38]
  MIC: 1 µg/mL (≈ 0.69 µM)
[8]; [37]
  MIC: 1 µg/mL (≈ 0.69 µM)
[9]; Enterococcus faecalis
  MIC: > 128 µg/mL
[9]; [39]
  MIC: >128 µg/mL

## CC1(C)S[C@@H]2[C@H](NC(=O)C(C(=O)O)c3ccccc3)C(=O)N2[C@H]1C(=O)O (stereo partly drawn) [carbenicillin]
E. coli strain DH5α
  MIC: 25 µM (≈ 9.46 µg/mL)
[20]
  MIC: 200 µM (≈ 75.7 µg/mL)
[21]
  MIC: > 200 µM
[22]
  MIC: < 1.56 µM

## O=C(N[C@H](CO)[C@H](O)c1ccc([N+](=O)[O-])cc1)C(Cl)Cl [chloramphenicol]
E. coli strain DH5α
  MIC: 3.12 µM (≈ 1.01 µg/mL)
[20]
  MIC: 12.5 µM (≈ 4.04 µg/mL)
[21]
  MIC: 25 µM (≈ 8.08 µg/mL)
[22]
  MIC: 6.25 µM (≈ 2.02 µg/mL)

## NC[C@H]1O[C@H](O[C@H]2[C@H](O)[C@@H](O[C@H]3O[C@H](CO)[C@@H](O)[C@H](N)[C@H]3O)[C@H](N)C[C@@H]2N)[C@H](O)[C@@H](O)[C@@H]1O [kanamycin]
E. coli strain DH5α
  MIC: 12.5 µM (≈ 6.06 µg/mL)
[20]
  MIC: 25 µM (≈ 12.1 µg/mL)
[21]
  MIC: 50 µM (≈ 24.2 µg/mL)
[22]
  MIC: < 1.56 µM

## gentamycin [reference compound]
[10]; S. pneumoniae, tryptic soy broth, 7% calf serum, 37° C., 48 hours
  MIC: 100 µg/mL
[11]
  MIC: 0.78 µg/mL
[12]
  MIC: 0.78 µg/mL
[14]
  MIC: 0.78 µg/mL
[16]
  MIC: 0.39 µg/mL
